Test results taken from US6486164B2, “6-(4-arylalkylpiperazin-1-yl) benzodioxane and 6-(4-arylalkylpiperazin-1-yl) chromane derivatives: dopamine receptor subtype specific ligands” (Neurogen Corporation, priority 1998, dated 2002).
Counter-ions that a name gives are not always drawn. Like-named read-outs stand apart in the source and are kept apart here.

Experiments:
D3 receptors from human = biological target: T1, D3 receptors from human (Homo sapiens, UniProt P35462); experiment: D3 receptor binding assay (3H-YM 09151-2 displacement)
T1 construct: expressed in transfected cells; host or cells: COS cells
T1 sequence (P35462 whole entry): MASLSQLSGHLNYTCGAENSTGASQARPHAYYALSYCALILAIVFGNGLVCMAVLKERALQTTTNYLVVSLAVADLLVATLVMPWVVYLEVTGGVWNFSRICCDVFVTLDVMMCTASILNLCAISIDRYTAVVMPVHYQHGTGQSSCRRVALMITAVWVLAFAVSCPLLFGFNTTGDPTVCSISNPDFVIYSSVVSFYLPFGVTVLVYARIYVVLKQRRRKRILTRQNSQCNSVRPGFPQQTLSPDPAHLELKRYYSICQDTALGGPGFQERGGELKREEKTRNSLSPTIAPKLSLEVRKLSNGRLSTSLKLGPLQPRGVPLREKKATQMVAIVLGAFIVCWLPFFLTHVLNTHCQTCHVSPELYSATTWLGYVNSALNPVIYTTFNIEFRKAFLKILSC
Procedure: (§1) Pellets of COS cells containing recombinantly produced D2, D3 or D4 receptors from human are used for the assays. The sample is homogenized in 100 volumes (w/vol) of 0.05 M Tris HCl buffer at 4° C. and pH 7.4. The sample is then centrifuged at 30,000×g and resuspended and rehomogenized. The sample is then centrifuged as described and the final tissue sample is frozen until use. The tissue is resuspended 1:20 (wt/vol) in 0.05 M Tris HCl buffer containing 100 mM NaCl.

D2 receptors from human = biological target: T2, D2 receptors from human (Homo sapiens, UniProt P14416); experiment: D2 receptor binding assay (3H-YM 09151-2 displacement)
T2 construct: expressed in transfected cells; host or cells: COS cells
T2 sequence (P14416 whole entry): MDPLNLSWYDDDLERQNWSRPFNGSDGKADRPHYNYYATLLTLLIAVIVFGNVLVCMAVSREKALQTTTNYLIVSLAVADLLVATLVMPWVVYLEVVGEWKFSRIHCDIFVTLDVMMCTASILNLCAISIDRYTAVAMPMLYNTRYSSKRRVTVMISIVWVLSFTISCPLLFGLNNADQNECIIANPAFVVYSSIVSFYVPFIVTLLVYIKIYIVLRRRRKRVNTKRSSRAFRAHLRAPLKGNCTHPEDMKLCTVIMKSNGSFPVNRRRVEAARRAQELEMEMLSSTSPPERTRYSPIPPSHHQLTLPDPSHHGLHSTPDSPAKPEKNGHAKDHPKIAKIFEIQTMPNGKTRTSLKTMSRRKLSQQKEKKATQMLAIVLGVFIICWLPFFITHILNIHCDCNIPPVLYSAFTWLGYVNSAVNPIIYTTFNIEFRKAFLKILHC
Procedure: as §1

D4 receptors from human = biological target: T3, D4 receptors from human (Homo sapiens, UniProt P21917); experiment: D4 receptor binding assay (3H-YM 09151-2 displacement)
T3 construct: expressed in transfected cells; host or cells: COS cells
T3 sequence (P21917 1-419): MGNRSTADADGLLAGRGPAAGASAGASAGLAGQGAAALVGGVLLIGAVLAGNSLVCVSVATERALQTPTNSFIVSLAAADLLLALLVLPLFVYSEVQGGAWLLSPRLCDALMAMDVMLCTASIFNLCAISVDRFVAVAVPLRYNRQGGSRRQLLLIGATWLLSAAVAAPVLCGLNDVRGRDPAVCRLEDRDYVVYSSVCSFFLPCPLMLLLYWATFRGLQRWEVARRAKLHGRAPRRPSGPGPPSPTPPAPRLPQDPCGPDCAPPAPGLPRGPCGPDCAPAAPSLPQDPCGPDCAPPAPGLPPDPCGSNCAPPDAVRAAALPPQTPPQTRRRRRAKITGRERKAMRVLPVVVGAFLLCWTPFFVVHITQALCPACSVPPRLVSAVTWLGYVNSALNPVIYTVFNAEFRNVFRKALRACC
Procedure: as §1

[1] = recombinant human receptor in COS cells, 0.5 nM 3H-YM 09151-2, read-out: D3 Ki
[2] = recombinant human receptor in COS cells, 0.5 nM 3H-YM 09151-2, read-out: D2 Ki
[3] = recombinant human receptor in COS cells, 0.5 nM 3H-YM 09151-2, read-out: D4 Ki

With `Cl.c1ccc(CN2CCN(c3ccc4c(c3)OCCO4)CC2)cc1` the melting point was 143 to 145 °C.

In the case of `Cc1ccc(CN2CCN(c3ccc4c(c3)OCCO4)CC2)cc1.O=C(O)C(=O)O`, the melting point is reported as 200 to 201 °C.

With `COc1ccc(CN2CCN(c3ccc4c(c3)OCCO4)CC2)cc1.O=C(O)C(=O)O` the melting point was 193 to 195 °C.

Molecule `Clc1cccc(CN2CCN(c3ccc4c(c3)OCCO4)CC2)c1.O=C(O)C(=O)O` has a melting point of 213 to 215 °C.

Work on `Clc1ccccc1CN1CCN(c2ccc3c(c2)OCCO3)CC1.O=C(O)C(=O)O` yielded a melting point of 175 °C.

Molecule `COc1ccccc1CN1CCN(c2ccc3c(c2)OCCO3)CC1.O=C(O)C(=O)O` has a melting point of 143 °C.

For “1-(Chroman-6-yl)-4-(4-methylbenzyl)piperazine Oxalate [Compound 4]”, the Ki (D3 receptors from human; [1]) was 2990 nM, the Ki (D2 receptors from human; [2]) was 2310 nM and the Ki (D4 receptors from human; [3]) was 35 nM.

With `COc1cccc(CN2CCN(c3ccc4c(c3)OCCO4)CC2)c1` (as salt: oxalate) [Compound 2, 1-(1,4-benzodioxan-6-yl)-4-(3-methoxybenzyl)piperazine oxalate] the melting point was 213 to 215 °C.

Work on `Clc1ccc(CN2CCN(c3ccc4c(c3)OCCO4)CC2)cc1` (as salt: oxalate) [Compound 3, 1-(1,4-benzodioxan-6-yl)-4-(4-chlorobenzyl)piperazine oxalate] yielded a melting point of 213 to 215 °C.

In the case of `Fc1ccc(CN2CCN(c3ccc4c(c3)OCCO4)CC2)cc1` [Compound 1, 1-(1,4-Benzodioxan-6-yl)-4-(4-fluorobenzyl)piperazine Oxalate], the Ki (D3 receptors from human) is reported as 3660 nM, the Ki (D2 receptors from human) is reported as greater than 4000 nM and the Ki (D4 receptors from human) is reported as 11 nM.

For `COc1cccc(CN2CCN(c3ccc4c(c3)OCCO4)CC2)c1` [Compound 2, 1-(1,4-benzodioxan-6-yl)-4-(3-methoxybenzyl)piperazine oxalate], the Ki (D3 receptors from human; [1]) was 2570 nM, the Ki (D2 receptors from human; [2]) was 2590 nM and the Ki (D4 receptors from human; [3]) was 37 nM.

Work on `Clc1ccc(CN2CCN(c3ccc4c(c3)OCCO4)CC2)cc1` [Compound 3, 1-(1,4-benzodioxan-6-yl)-4-(4-chlorobenzyl)piperazine oxalate] yielded a Ki (D3 receptors from human) of 2630 nM, a Ki (D2 receptors from human) greater than 4000 nM and a Ki (D4 receptors from human) of 25 nM.
